We go through 16 compounds from patent US8017637B2, “Inhibitors of cdc phosphatases” (Ipsen Pharma S.A.S., priority 2004, dated 2011).

Data set [1] relates to Mia-Paca2 lines (human pancreatic cancer cells). The data set can be described thus: Anti-proliferative activity, WST1 colorimetric test, Mia-Paca2 cells. Format: cell-based. The following applies: MIA PaCa-2, 96 hours treatment, up to 10 μM, read-out: IC50 on the cell proliferation of the Mia-Paca2 lines. As for the experimental part:
(§1) ii) Characterization of Anti-Proliferative Activity:
(§2) By way of example, the effect of a treatment by the compounds of the examples described previously on two lines of human Mia-Paca2 and DU145 cells will be studied. The cell lines DU145 (human prostate cancer cells) and Mia-PaCa2 (human pancreatic cancer cells) were acquired from the American Tissue Culture Collection (Rockville, Md., USA). The cells placed in 80 μl of Dulbecco's Modified Eagle medium (Gibco-Brl, Cergy-Pontoise, France) completed with 10% foetal calf serum inactivated by heating (Gibco-Brl, Cergy-Pontoise, France), 50,000 units/l of penicillin and 50 mg/l streptomycin (Gibco-Brl, Cergy-Pontoise, France), and 2 mM of glutamine (Gibco-Brl, Cergy-Pontoise, France) were seeded on a 96-well plate on day 0. The cells were treated on day 1 for 96 hours at increasing concentrations of each of the compounds to be tested up to 10 μM. At the end of the of this period, quantification of the cell proliferation is evaluated by a colorimetric test based on the cleavage of the tetrazolium salt WST1 by the mitochondrial dehydrogenases in the viable cells leading to the formation of formazan (Boehringer Mannheim, Meylan, France). These tests are carried out in duplicate with 8 determinations per concentration tested. For each compound to be tested, the values included in the linear part of the sigmoid were retained for linear regression analysis and used in order to estimate the inhibitory concentration IC50. The products are solubilized in dimethylsulphoxide (DMSO) at to 10^−2M and finally used in culture with 0.1% DMSO.
(Tetrazolium assays rely on reduction of a dye to a coloured formazan, in cell work by metabolically active cells.)

Data set [2] concerns the target T1, purified recombinant enzyme Cdc25-C (MBP-Cdc25C) (Homo sapiens, UniProt P30307).
T1 construct: made in house
T1 sequence (P30307 1-473): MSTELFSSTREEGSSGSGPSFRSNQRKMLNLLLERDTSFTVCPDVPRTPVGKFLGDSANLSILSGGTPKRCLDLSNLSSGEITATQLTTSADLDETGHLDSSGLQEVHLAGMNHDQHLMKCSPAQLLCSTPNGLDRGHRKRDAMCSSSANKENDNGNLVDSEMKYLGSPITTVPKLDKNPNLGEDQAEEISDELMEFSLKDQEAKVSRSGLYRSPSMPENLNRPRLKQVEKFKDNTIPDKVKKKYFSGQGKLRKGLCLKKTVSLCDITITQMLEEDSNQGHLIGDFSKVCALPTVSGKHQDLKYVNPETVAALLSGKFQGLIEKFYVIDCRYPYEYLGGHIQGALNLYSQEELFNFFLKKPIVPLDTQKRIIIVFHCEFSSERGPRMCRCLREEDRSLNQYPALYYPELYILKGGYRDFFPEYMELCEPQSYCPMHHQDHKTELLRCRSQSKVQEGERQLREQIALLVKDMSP
The data set can be described thus: Measurement of the phosphatase activity of the purified recombinant enzyme Cdc25C (OMFP dephosphorylation, fluorescence). The format is biochemical. Particulars: OMFP 500 μM, 4 hours at 30° C. As for the experimental part: i) Measurement of the Phosphatase Activity of the Purified Recombinant Enzyme Cdc25C
The phosphatase activity of the protein MBP-Cdc25C is evaluated by the dephosphorylation of 3-O-methylfluorescein-phosphate (OMFP) to 3-O-methylfluorescein (OMF) with a determination of the fluorescence at 475 nm of the reaction product. This test makes it possible to identify inhibitors of the recombinant enzyme cdc25. The preparation of the fusion protein MBP-Cdc25C is described in the Patent Application PCT WO 01/44467.
The reaction is carried out in 384-well plate format at a final volume of 50 μl. The protein MBP-Cdc25C (prepared as described above) is preserved in the following elution buffer: 20 mM Tris-HCl pH 7.4; 250 mM NaCl; 1 mM EDTA; 1 mM of dithiothreitol (DTT); 10 mM maltose. It is diluted to a concentration of 60 μM in the following reaction buffer: 50 mM Tris-HCl pH 8.2; 50 mM NaCl; 1 mM DTT; 20% glycerol. Measurement of the background noise is carried out with the buffer without the addition of the enzyme. The products are tested at decreasing concentrations starting from 40 μM. The reaction is initiated by the addition of an OMFP solution at 500 μM final (prepared extemporaneously from a 12.5 mM stock solution in 100% DMSO (Sigma #M2629)). After 4 hours at 30° C. in a single-use 384-well plate, the fluorescence measured at OD 475 nm is read using a Victor^2 plate reader (EGG-Wallac). The determination of the concentration inhibiting the enzyme reaction by 50% is calculated from three independent experiments. Only the values contained in the linear part of the sigmoid are retained for linear regression analysis.

The subject of data set [3] is DU-145 lines (human prostate cancer cells). The data set can be described thus: Anti-proliferative activity, WST1 colorimetric test, DU145 cells. Format: cell-based. The following applies: 96 hours treatment, up to 10 μM, read-out: IC50 on the cell proliferation of the DU-145 lines. As for the experimental part:
as §1, §2

What is called melting point is the temperature, or range, at which the solid turns liquid. The compound `Cc1nc2c(s1)C(=O)C=C(NCCCN(C)CCCNC1=CC(=O)c3sc(C)nc3C1=O)C2=O` [Example 1, 5.5′-[(methylimino)bis(propane-3,1-diylimino)]bis(2-methyl-1,3-benzothiazole-4,7-dione)] gave a melting point of 94 to 96 °C. Besides, in data set [1], the IC50 is not above 10 µM. Further, the IC50 in data set [2] is not above 1000 nM. In addition, the IC50 in data set [3] is not above 10 µM.

Compound `Cc1nc2c(s1)C(=O)C=C(NCCN(C)CCNC1=CC(=O)c3sc(C)nc3C1=O)C2=O` [Example 2, 5.5′-[(methylimino)bis(ethane-2,1-diylimino)]bis(2-methyl-1,3-benzothiazole-4,7-dione)] returned a melting point of 188 to 190 °C. In addition, the IC50 in data set [1] was not above 10 µM. In addition, the IC50 in data set [2] was not above 1000 nM. Moreover, the IC50 in data set [3] is not above 10 µM.

For `Cc1nc2c(s1)C(=O)C=C(NCCOCCNC1=CC(=O)c3sc(C)nc3C1=O)C2=O` [Example 3, 5.5′-[oxybis(ethane-2,1-diylimino)]bis(2-methyl-1,3-benzothiazole-4,7-dione)], the IC50 in data set [1] was not above 10 µM; in data set [2], not above 1000 nM; in data set [3], not above 10 µM.

In the case of `Cc1nc2c(s1)C(=O)C=C(NCCCCCNC1=CC(=O)c3sc(C)nc3C1=O)C2=O` [Example 4], the IC50 in data set [1] was not above 10 µM; in data set [2] it was not above 1000 nM; in data set [3], not above 10 µM.

Turning to `Cc1nc2c(s1)C(=O)C(NCCN(C)CCNC1=CC(=O)c3nc(C)sc3C1=O)=CC2=O` [Example 6, 6.6′-[(methylimino)bis(ethane-2,1-diylimino)]bis(2-methyl-1,3-benzothiazole-4,7-dione)], the IC50 in data set [1] was not above 10 µM; in data set [2] it was not above 5000 nM; in data set [3], not above 10 µM.

For the compound `Cc1nc2c(s1)C(=O)C(Br)=C(NCCCN(C)CCCNC1=C(Br)C(=O)c3sc(C)nc3C1=O)C2=O` [Example 17, 5.5′-[(methylimino)bis(propane-3,1-diylimino)]bis(6-bromo-2-methyl-1,3-benzothiazole-4,7-dione)], the IC50 in data set [1] is not above 10 µM; in data set [2], not above 1000 nM; in data set [3] it was not above 10 µM.

As for `CN(CCCN(C)C1=CC(=O)c2nc(-c3cc(F)ccc3F)oc2C1=O)CCCN(C)C1=CC(=O)c2nc(-c3cc(F)ccc3F)oc2C1=O` [Example 23, 6.6′-{(methylimino)bis[propane-3,1-diyl(methylimino)]}bis[2-(2,5-difluorophenyl)-1,3-benzoxazole-4,7-dione]], the IC50 in data set [2] was not above 5000 nM.

In turn, `CN(CCCNC1=CC(=O)c2sc(C(=O)N3CCN(C(=O)N4CCOCC4)CC3)nc2C1=O)CCCNC1=CC(=O)c2sc(C(=O)N3CCN(C(=O)N4CCOCC4)CC3)nc2C1=O` [Example 27, 5.5′-[(methylimino)bis(propane-3,1-diylimino)]bis(2-{[4-(morpholin-4-ylcarbonyl)piperazin-1-yl]carbonyl}-1,3-benzothiazole-4,7-dione)] displayed a melting point of 157 to 158 °C. In addition, in data set [1], the IC50 was not above 10 µM. Also, the IC50 in data set [2] is not above 1000 nM.

For the compound `CN(CCCNC1=CC(=O)c2sc(C(=O)N3CCN(C(=O)C4CCCO4)CC3)nc2C1=O)CCCNC1=CC(=O)c2sc(C(=O)N3CCN(C(=O)C4CCCO4)CC3)nc2C1=O` (stereo not drawn) [Example 28, 5.5′-[(methylimino)bis(propane-3,1-diylimino)]bis(2-{[4-(tetrahydrofuran-2-ylcarbonyl)piperazin-1-yl]carbonyl}-1,3-benzothiazole-4,7-dione)], the melting point was in the range of 152 to 153 °C. In addition, in data set [1], the IC50 was not above 10 µM. Moreover, the IC50 in data set [2] was not above 1000 nM.

For the compound `Cc1nc2c(s1)C(=O)C=C(NCCCN(C)CCCNC1=CC(=O)c3nc(C(=O)N4CCCC4)sc3C1=O)C2=O` [Example 44, 5-({3-[(3-{[4,7-dioxo-2-(pyrrolidin-1-ylcarbonyl)-4,7-dihydro-1,3-benzothiazol-6-yl]amino}propyl)(methyl)amino]propyl}amino)-2-methyl-1,3-benzothiazole-4,7-dione], the results for the IC50 in data set [1], in data set [2] and in data set [3] were not above 10 µM, not above 1000 nM and not above 10 µM, respectively.

On to `COc1ccc(CNC(=O)c2nc3c(s2)C(=O)C=C(NCCCN(C)CCCNC2=CC(=O)c4sc(C)nc4C2=O)C3=O)cc1` [Example 45, N-(4-methoxybenzyl)-5-{[3-(methyl{3-[(2-methyl-4,7-dioxo-4,7-dihydro-1,3-benzothiazol-5-yl)amino]propyl}amino)propyl]amino}-4,7-dioxo-4,7-dihydro-1,3-benzothiazole-2-carboxamide], for which the IC50 in data set [1] was not above 10 µM; in data set [2], not above 1000 nM; in data set [3], not above 10 µM.

Take `COc1ccc2c(c1)CCCN2C(=O)c1nc2c(s1)C(=O)C=C(NCCCN(C)CCCNC1=CC(=O)c3sc(C)nc3C1=O)C2=O` [Example 47, 2-[(6-methoxy-3,4-dihydroquinolin-1(2H)-yl)carbonyl]-5-{[3-(methyl{3-[(2-methyl-4,7-dioxo-4,7-dihydro-1,3-benzothiazol-5-yl)amino]propyl}amino)propyl]amino}-1,3-benzothiazole-4,7-dione]: the IC50 in data set [2] is not above 1000 nM.

Regarding `COc1ccc(C(=O)N2CCN(C(=O)c3nc4c(s3)C(=O)C=C(NCCCN(C)CCCNC3=CC(=O)c5sc(C)nc5C3=O)C4=O)CC2)cc1` [Example 48, 2-{[4-(4-methoxybenzoyl)piperazin-1-yl]carbonyl}-5-{[3-(methyl{3-[(2-methyl-4,7-dioxo-4,7-dihydro-1,3-benzothiazol-5-yl)amino]propyl}amino)propyl]amino}-1,3-benzothiazole-4,7-dione], the figures for the IC50 in data set [1], in data set [2] and in data set [3] were not above 10 µM, not above 1000 nM and not above 10 µM, respectively.

In the case of `Cc1nc2c(s1)C(=O)C=C(NCCCN(C)CCCNC1=CC(=O)c3scnc3C1=O)C2=O` [Example 50, 5-({3-[{3-[(4,7-dioxo-4,7-dihydro-1,3-benzothiazol-5-yl)amino]propyl}(methyl)amino]propyl}amino)-2-methyl-1,3-benzothiazole-4,7-dione], the IC50 in data set [1] was not above 10 µM; in data set [2], not above 1000 nM; in data set [3], not above 10 µM.

Regarding `Cc1nc2c(s1)C(=O)C=C(NCCCN(C)CCCNC1=CC(=O)c3nc(-c4cc(F)ccc4F)oc3C1=O)C2=O` [Example 51, 2-(2,5-difluorophenyl)-6-{[3-(methyl{3-[(2-methyl-4,7-dioxo-4,7-dihydro-1,3-benzothiazol-5-yl)amino]propyl}amino)propyl]amino}-1,3-benzoxazole-4,7-dione], the IC50 in data set [1] is not above 10 µM; in data set [2], not above 1000 nM.

As to `Cc1nc2c(s1)C(=O)C(NCCCN(C)CCCNC1=CC(=O)c3nc(-c4cc(F)ccc4F)oc3C1=O)=CC2=O` [Example 53, 2-(2,5-difluorophenyl)-6-{[3-(methyl{3-[(2-methyl-4,7-dioxo-4,7-dihydro-1,3-benzothiazol-6-yl)amino]propyl}amino)propyl]amino}-1,3-benzoxazole-4,7-dione], the IC50 in data set [1] was not above 10 µM; in data set [2] it was not above 1000 nM; in data set [3], not above 10 µM.
